The target of one test is AT1 receptor (Homo sapiens (Human), UniProt P30556). The test is described as follows: AT1 receptor binding inhibitory action.
The target of the next test is PPARγ (Homo sapiens (Human), UniProt P37231). Put plainly: PPARγ activating action (luciferase reporter in PPARγ:RXRα:4ERPP/CHO-K1 cells). In kind it is cell-based. The note with it: CHO-K1, 24 h, read-out: PPARγ activating action (activation % (1 μM)). Here is the method:
Then the medium was removed from the 96-well half area white plate, 45 μl of Ham's F12 medium containing 0.1% fatty acid-free bovine serum albumin (BSA) and 5 μl of test compound were added, and the cells were cultured in a CO2 gas incubator at 37° C. for 1 day. The medium was removed and 20 μl of PicaGene 7.5 [manufactured by Dainippon Ink and Chemicals Corporation, Japan] diluted 2-fold with HBSS (HANKS' BALANCED SALT SOLUTION) [manufactured by BIO WHITTAKER, USA] was added. After stirring, the luciferase activity was determined using 1420 ARVO Multilabel Counter [manufactured by PerkinElmer, USA]. […] A CHO-K1 cell cultured in a 150 cm^2 cell culture flask [manufactured by Corning Costar Corporation, USA] containing Ham's F12 medium [manufactured by INVITROGEN, USA] supplemented with 10% fetal bovine serum [manufactured by INVITROGEN, USA] was scraped by treating with 0.5 g/L trypsin-0.2 g/L EDTA (ethylenediaminetetraacetic acid) [manufactured by Life Technologies, Inc., USA], and then the cell was washed with PBS (Phosphate-buffered saline) [manufactured by INVITROGEN, USA], centrifuged (1000 rpm, 5 minutes) and suspended in PBS. Subsequently, DNA was introduced into the cell under the conditions shown below using GENE PULSER [manufactured by Bio-Rad Laboratories, USA]. […] Subsequently, the cell was transferred into a F12 medium containing 10% fetal bovine serum and cultured for 24 hours, and then the cell was scraped again and centrifuged, and then suspended in Ham's F12 medium containing 10% fetal bovine serum supplemented with 500 μg/ml of Geneticin [manufactured by INVITROGEN, USA] and 250 μg/ml of Zeocin [manufactured by INVITROGEN, USA]. The obtained suspension was diluted to the density of 10^4 cells/ml and inoculated in a 96-well plate [manufactured by Corning Costar Corporation, USA], which was cultured in a CO2 gas incubator at 37° C., whereby obtaining a Geneticin- and Zeocin-resistant transformant.

[1] abbreviates: test compound 1 μM, luciferase activity relative to control compound X (1 μM) = 100%, non-administration group = 0%.

Structures can show the parent of a compound that is named as a salt. Where two headings read alike, the source gives them in different places.

Sequence of AT1 receptor (P30556 whole entry): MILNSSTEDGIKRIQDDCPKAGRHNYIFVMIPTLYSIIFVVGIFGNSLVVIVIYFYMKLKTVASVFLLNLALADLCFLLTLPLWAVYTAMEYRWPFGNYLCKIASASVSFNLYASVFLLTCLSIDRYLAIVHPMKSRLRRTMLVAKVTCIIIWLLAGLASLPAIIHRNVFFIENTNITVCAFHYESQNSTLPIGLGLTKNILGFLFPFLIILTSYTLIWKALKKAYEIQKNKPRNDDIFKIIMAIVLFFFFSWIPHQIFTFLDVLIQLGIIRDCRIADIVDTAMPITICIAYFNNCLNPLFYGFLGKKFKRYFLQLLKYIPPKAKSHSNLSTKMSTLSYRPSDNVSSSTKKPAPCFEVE
Sequence of PPARγ (P37231 29-505): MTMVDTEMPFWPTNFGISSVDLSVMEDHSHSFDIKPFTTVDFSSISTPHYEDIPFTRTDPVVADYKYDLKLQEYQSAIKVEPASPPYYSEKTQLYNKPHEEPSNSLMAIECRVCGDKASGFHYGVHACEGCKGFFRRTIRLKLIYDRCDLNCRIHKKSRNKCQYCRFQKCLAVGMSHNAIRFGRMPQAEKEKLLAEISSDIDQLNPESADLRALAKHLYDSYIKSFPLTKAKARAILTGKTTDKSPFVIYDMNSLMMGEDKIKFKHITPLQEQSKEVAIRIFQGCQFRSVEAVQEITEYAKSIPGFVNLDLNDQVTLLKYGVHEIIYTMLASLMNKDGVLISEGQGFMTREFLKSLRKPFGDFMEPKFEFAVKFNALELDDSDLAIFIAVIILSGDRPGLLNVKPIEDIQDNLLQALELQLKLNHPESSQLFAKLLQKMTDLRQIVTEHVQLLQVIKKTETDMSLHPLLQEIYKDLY
Sequence of PPARγ (P19793 whole entry partner): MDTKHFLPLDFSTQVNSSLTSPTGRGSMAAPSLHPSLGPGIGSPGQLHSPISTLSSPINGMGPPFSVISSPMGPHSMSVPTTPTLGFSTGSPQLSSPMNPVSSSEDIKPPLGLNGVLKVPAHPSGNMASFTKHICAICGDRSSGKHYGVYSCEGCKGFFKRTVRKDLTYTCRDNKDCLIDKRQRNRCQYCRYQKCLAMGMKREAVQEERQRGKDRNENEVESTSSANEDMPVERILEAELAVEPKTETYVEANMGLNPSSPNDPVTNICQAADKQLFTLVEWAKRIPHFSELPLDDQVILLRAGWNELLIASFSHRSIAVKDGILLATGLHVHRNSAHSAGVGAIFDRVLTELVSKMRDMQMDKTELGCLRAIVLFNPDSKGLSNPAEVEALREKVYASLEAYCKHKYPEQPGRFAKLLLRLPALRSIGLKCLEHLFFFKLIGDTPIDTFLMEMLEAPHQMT

On AT1 receptor, `CCc1cc2c(=O)n(CC(=O)c3ccc(OC)cc3)c(=O)n(Cc3ccc(-c4ccccc4-c4noc(O)n4)cc3OC)c2s1` [Ex. 192, 6-ethyl-1-{[3-methoxy-2′-(5-oxo-4,5-dihydro-1,2,4-oxadiazol-3-yl)biphenyl-4-yl]methyl}-3-[2-(4-methoxyphenyl)-2-oxoethyl]thieno[2,3-d]pyrimidine-2,4(1H,3H)-dione potassium salt] yielded an IC50 of 2.3 nM. Moreover, the activation at 1 µM at PPARγ amounted to 49%.

With `CCc1cc2c(=O)n(C/C(=N/OC)C(C)(C)C)c(=O)n(Cc3ccc(-c4ccccc4-c4noc(=O)[nH]4)cc3)c2s1` [Ex. 142, 6-ethyl-3-[2-(methoxyimino)-3,3-dimethylbutyl]-1-{[2′-(5-oxo-4,5-dihydro-1,2,4-oxadiazol-3-yl)biphenyl-4-yl]methyl}thieno[2,3-d]pyrimidine-2,4(1H,3H)-dione], on AT1 receptor, the 50% inhibitory concentration (IC50) was 1.5 nM. The activation at 1 µM on PPARγ (setting [1]) was 38%.

Regarding `CCc1cc2c(=O)n(-c3ccc4c(c3)CC(C)(C)O4)c(=O)n(Cc3ccc(-c4ccccc4-c4noc(=O)[nH]4)cc3F)c2s1` [Ex. 181, 3-(2,2-dimethyl-2,3-dihydro-1-benzofuran-5-yl)-6-ethyl-1-{[3-fluoro-2′-(5-oxo-4,5-dihydro-1,2,4-oxadiazol-3-yl)biphenyl-4-yl]methyl}thieno[2,3-d]pyrimidine-2,4(1H,3H)-dione], at AT1 receptor, the IC50 is 1.2 nM. The activation at 1 µM on PPARγ (setting [1]) stood at 55%.

`CCc1cc2c(=O)n(CC(=O)c3ccc(OC)cc3F)c(=O)n(Cc3ccc(-c4ccccc4-c4noc(=O)[nH]4)cc3)c2s1` [Ex. 73, 6-ethyl-3-[2-(2-fluoro-4-methoxyphenyl)-2-oxoethyl]-1-{[2′-(5-oxo-4,5-dihydro-1,2,4-oxadiazol-3-yl)biphenyl-4-yl]methyl}thieno[2,3-d]pyrimidine-2,4(1H,3H)-dione] showed a 50% inhibitory concentration (IC50) on AT1 receptor of 1.5 nM. Besides, the activation at 1 µM on PPARγ (setting [1]) is 35%.

For `CCc1cc2c(=O)n(CC(O)C(C)(C)C)c(=O)n(Cc3ccc(-c4ccccc4-c4noc(=O)[nH]4)cc3)c2s1` (stereo not drawn) [Ex. 149, 6-ethyl-3-(2-hydroxy-3,3-dimethylbutyl)-1-{[2′-(5-oxo-4,5-dihydro-1,2,4-oxadiazol-3-yl)biphenyl-4-yl]methyl}thieno[2,3-d]pyrimidine-2,4(1H,3H)-dione], the IC50 on AT1 receptor was found to be 1.8 nM. Moreover, the activation at 1 µM at PPARγ (setting [1]) was 50%.

For `CCc1cc2c(=O)n(-c3ccc(OC(C)C)cc3)c(=O)n(Cc3ccc(-c4ccccc4-c4noc(=O)[nH]4)cc3F)c2s1` [Ex. 180, 6-ethyl-1-{[3-fluoro-2′-(5-oxo-4,5-dihydro-1,2,4-oxadiazol-3-yl)biphenyl-4-yl]methyl}-3-(4-isopropoxyphenyl)thieno[2,3-d]pyrimidine-2,4(1H,3H)-dione], the IC50 on AT1 receptor worked out at 1.6 nM. Besides, the activation at 1 µM at PPARγ (setting [1]) was determined as 50%.

For the compound `O=c1[nH]c(-c2ccccc2-c2ccc(Cn3c(=O)n(CCc4ccc(Cl)cc4)c(=O)c4cc(CC(F)(F)F)sc43)cc2)no1` [Ex. 58, 3-[2-(4-chlorophenyl)ethyl]-1-{[2′-(5-oxo-4,5-dihydro-1,2,4-oxadiazol-3-yl)biphenyl-4-yl]methyl}-6-(2,2,2-trifluoroethyl)thieno[2,3-d]pyrimidine-2,4(1H,3H)-dione], the IC50 on AT1 receptor was 1.6 nM. Further, the activation at 1 µM at PPARγ (setting [1]) amounted to 27%.

In turn, `O=C(Cn1c(=O)c2cc(CC(F)(F)F)sc2n(Cc2ccc(-c3ccccc3-c3noc(=O)[nH]3)cc2)c1=O)C1CCCCC1` [Ex. 136, 3-(2-cyclohexyl-2-oxoethyl)-1-{[2′-(5-oxo-4,5-dihydro-1,2,4-oxadiazol-3-yl)biphenyl-4-yl]methyl}-6-(2,2,2-trifluoroethyl)thieno[2,3-d]pyrimidine-2,4(1H,3H)-dione] returned an IC50 at AT1 receptor of 1.5 nM. Also, the activation at 1 µM at PPARγ (setting [1]) was 36%.

`CCc1cc2c(=O)n(CC(=O)c3ccc(OC)cc3)c(=O)n(Cc3ccc(-c4cc(F)ccc4-c4noc(=O)[nH]4)cc3)c2s1` [Ex. 203, 6-ethyl-1-{[5′-fluoro-2′-(5-oxo-4,5-dihydro-1,2,4-oxadiazol-3-yl)biphenyl-4-yl]methyl}-3-[2-(4-methoxyphenyl)-2-oxoethyl]thieno[2,3-d]pyrimidine-2,4(1H,3H)-dione] displayed an IC50 on AT1 receptor of 1.8 nM. On PPARγ (setting [1]), the activation at 1 µM was 28%.

The compound `CCc1cc2c(=O)n(CC(=NOC(C)C)c3ccc(OC)cc3)c(=O)n(Cc3ccc(-c4ccccc4-c4noc(=O)[nH]4)cc3)c2s1` [Ex. 213, 6-ethyl-3-[2-(isopropoxyimino)-2-(4-methoxyphenyl)ethyl]-1-{[2′-(5-oxo-4,5-dihydro-1,2,4-oxadiazol-3-yl)biphenyl-4-yl]methyl}thieno[2,3-d]pyrimidine-2,4(1H,3H)-dione] gave an IC50 at AT1 receptor of 2 nM. In addition, the activation at 1 µM at PPARγ (setting [1]) came to 49%.

Consider `CCc1cc2c(=O)n(CC3(O)CCOCC3)c(=O)n(Cc3ccc(-c4ccccc4-c4noc(=O)[nH]4)cc3)c2s1` [Ex. 145, 6-ethyl-3-[(4-hydroxytetrahydro-2H-pyran-4-yl)methyl]-1-{[2′-(5-oxo-4,5-dihydro-1,2,4-oxadiazol-3-yl)biphenyl-4-yl]methyl}thieno[2,3-d]pyrimidine-2,4(1H,3H)-dione], for which the IC50 on AT1 receptor was found to be 1.7 nM. For the same compound, the activation at 1 µM on PPARγ (setting [1]) is 36%.

`CCc1cc2c(=O)n(CC(=O)c3ccc(Cl)cc3)c(=O)n(Cc3ccc(-c4ccccc4-c4noc(=O)[nH]4)cc3)c2s1` [Ex. 121, 3-[2-(4-chlorophenyl)-2-oxoethyl]-6-ethyl-1-{[2′-(5-oxo-4,5-dihydro-1,2,4-oxadiazol-3-yl)biphenyl-4-yl]methyl}thieno[2,3-d]pyrimidine-2,4(1H,3H)-dione] returned a 50% inhibitory concentration (IC50) at AT1 receptor of 1.7 nM. Also, the activation at 1 µM on PPARγ (setting [1]) came out at 28%.

With `CCc1cc2c(=O)n(CC(=O)c3ccc(OC)cc3)c(=O)n(Cc3ccc(-c4ccc(F)cc4-c4noc(=O)[nH]4)cc3)c2s1` [Ex. 198, 6-ethyl-1-{[4′-fluoro-2′-(5-oxo-4,5-dihydro-1,2,4-oxadiazol-3-yl)biphenyl-4-yl]methyl}-3-[2-(4-methoxyphenyl)-2-oxoethyl]thieno[2,3-d]pyrimidine-2,4(1H,3H)-dione], the IC50 on AT1 receptor stood at 1.5 nM. Besides, the activation at 1 µM at PPARγ (setting [1]) turned out to be 36%.

For `CCCc1cc2c(=O)n(CC(=O)c3ccc(OC)cc3)c(=O)n(Cc3ccc(-c4ccccc4-c4noc(=O)[nH]4)cc3F)c2s1` [Ex. 158, 1-{[3-fluoro-2′-(5-oxo-4,5-dihydro-1,2,4-oxadiazol-3-yl)biphenyl-4-yl]methyl}-3-[2-(4-methoxyphenyl)-2-oxoethyl]-6-propylthieno[2,3-d]pyrimidine-2,4(1H,3H)-dione], the IC50 on AT1 receptor came to 1.7 nM. The activation at 1 µM on PPARγ (setting [1]) worked out at 30%.

Take `CCc1cc2c(=O)n(CC(=O)c3sccc3Br)c(=O)n(Cc3ccc(-c4ccccc4-c4noc(=O)[nH]4)cc3)c2s1` [Ex. 222, 3-[2-(3-bromo-2-thienyl)-2-oxoethyl]-6-ethyl-1-{[2′-(5-oxo-4,5-dihydro-1,2,4-oxadiazol-3-yl)biphenyl-4-yl]methyl}thieno[2,3-d]pyrimidine-2,4(1H,3H)-dione]: the half-maximal inhibitory concentration (IC50) on AT1 receptor stood at 1.9 nM. For the same compound, the activation at 1 µM on PPARγ (setting [1]) is 32%.

For the compound `CCc1cc2c(=O)n(CC(=O)c3ccc(OC)cc3)c(=O)n(Cc3ccc(-c4ccccc4-c4noc(O)n4)cc3Br)c2s1` [Ex. 194, 1-{[3-bromo-2′-(5-oxo-4,5-dihydro-1,2,4-oxadiazol-3-yl)biphenyl-4-yl]methyl}-6-ethyl-3-[2-(4-methoxyphenyl)-2-oxoethyl]thieno[2,3-d]pyrimidine-2,4(1H,3H)-dione potassium salt], the IC50 on AT1 receptor came out at 1.7 nM. For the same compound, on PPARγ, the activation at 1 µM stood at 34%.

Consider `COc1cc(F)ccc1C(=O)Cn1c(=O)c2cc(C3CC3)sc2n(Cc2ccc(-c3ccccc3-c3noc(=O)[nH]3)cc2)c1=O` [Ex. 130, 6-cyclopropyl-3-[2-(4-fluoro-2-methoxyphenyl)-2-oxoethyl]-1-{[2′-(5-oxo-4,5-dihydro-1,2,4-oxadiazol-3-yl)biphenyl-4-yl]methyl}thieno[2,3-d]pyrimidine-2,4(1H,3H)-dione], for which the 50% inhibitory concentration (IC50) on AT1 receptor came out at 1.6 nM. Besides, the activation at 1 µM at PPARγ (setting [1]) was 56%.

At AT1 receptor, `CCc1cc2c(=O)n(CC(=O)C(C)(C)C)c(=O)n(Cc3ccc(-c4ccccc4-c4noc(=O)[nH]4)cc3)c2s1` [Ex. 131, 3-(3,3-dimethyl-2-oxobutyl)-6-ethyl-1-{[2′-(5-oxo-4,5-dihydro-1,2,4-oxadiazol-3-yl)biphenyl-4-yl]methyl}thieno[2,3-d]pyrimidine-2,4(1H,3H)-dione] showed an IC50 of 1.2 nM. The activation at 1 µM on PPARγ (setting [1]) amounted to 72%.
